Measurements taken from PMC9779727, “Identification of Novel Artemisinin Hybrids Induce Apoptosis and Ferroptosis in MCF-7 Cells” (International Journal of Molecular Sciences, 2022).

Legend:
Format in all cases: cell-based, human
lung cancer A549 cells = assay: MTT antiproliferation assay, A549; conditions: means ± SD, n = 3
Description: (§1) The target hybrids A1–A15 were screened for their antiproliferation activities against five human cancer cell lines (lung cancer A549 cells, breast cancer MCF-7 and MDA-MB-231 cells, colon cancer HCT116 cells and ovarian cancer SK-OV-3 cells) in vitro by the standard MTT method, and 5-fluorouracil (5-FU) and ART were coassayed as controls. […] Therefore, the most promising hybrid, A8, was chosen for further exploration of the preliminary mechanism of MCF-7 cell antiproliferation.
(§2) Cytotoxicity of test compounds against five different tumor cell lines were evaluated using an MTT assay in vitro. Cells were seeded into 96-well plates at a density of 5 × 10^4 cells per well and stabilized at 37 °C with 5% CO2 for 24 h. Compounds A1–A15, ART and 5-FU were added to each well at various concentrations and then the cells were incubated for 48 h. The MTT solution (100 μL 0.5 mg/mL^−1) was added to each well, and the cells were incubated for another 4 h. Then, 150 μL DMSO was added to each well and the absorbance of samples was measured at 492 nm. The IC50 values were calculated according to Logit method after getting the inhibitory rate.

[1] = tested on: breast cancer MCF-7 cells; assay: MTT antiproliferation assay, MCF-7; conditions: means ± SD, n = 3
Description: as §1, §2

[2] = tested on: colon cancer HCT116 cells; assay: MTT antiproliferation assay, HCT116; conditions: means ± SD, n = 3
Description: as §1, §2

[3] = tested on: ovarian cancer SK-OV-3 cells; assay: MTT antiproliferation assay, SK-OV-3; conditions: means ± SD, n = 3
Description: as §1, §2

[4] = tested on: breast cancer MDA-MB-231 cells; assay: MTT antiproliferation assay, MDA-MB-231; conditions: means ± SD, n = 3
Description: as §1, §2

MCF-7 cells = assay: Lipid peroxidation (MDA) detection; conditions: MCF-7, added to A8 treatment
Description: We also determined the effect of A8 on the expression of GSH and MDA (lipid peroxidation).
Lipid peroxidation assay kit (Beyotime, Shanghai, China) was used to detect malonaldehyde (MDA), together with GSH level assay, present in samples, as per the manufacturer’s instruction with slight modifications.

GPX4 = assay: Western blotting, GPX4 expression; conditions: MCF-7, added to A8 treatment
Procedure: We examined the effect of A8 on the expression of GPX4 as well, which is vital in preventing ferroptosis. […] Thus, we concluded that A8 induced the accumulation of ROS and lipid peroxidation and suppressed GSH levels and the expression of GPX4, thereby leading to the induction of ferroptosis.
MCF-7 cells were seeded at a density of 4 × 10^5 cells per well and treated with various concentrations of compound A8 (0, 2.5, 5 and 10 μM) for 48 h. After this, cells were collected and washed twice with ice-cold DPBS. The pellets were resuspended in a total protein extraction buffer (20 mM HEPES, 350 mM NaCl, 20% glycerol, 1% NP-40, 1 mM MgCl2, 0.5 mM EDTA, 0.1 mM EGTA, 0.1 mM DTT, 0.1 mM PMSF) containing a protease inhibitor cocktail and incubated on ice for 30 min with intermittent mixing. The protein concentration was measured using the Bradford reagent (Bio-Rad Laboratories Inc., Hercules, CA, USA). An equal amount (20 μg) of protein was loaded on 10% polyacrylamide gels and transferred to a nitrocellulose membrane. After blocking with 5% skimmed milk, the membrane was incubated at 4 °C overnight with specific primary antibodies. The membrane was washed and incubated at room temperature for 1 h with secondary antibodies conjugated with horseradish peroxidase (HRP). Finally, the immunoblot was developed for visualization using a chemiluminescence kit. […]

IC50 (lung cancer A549 cells; Homo sapiens, A549, 48 h) [µM]	IC50 ([1]; Homo sapiens, MCF7, 48 h) [µM]	IC50 ([2]; Homo sapiens, HCT-116, 48 h) [µM]	IC50 ([3]; Homo sapiens, SK-OV-3, 48 h) [µM]	IC50 ([4]; Homo sapiens, MDA-MB-231, 48 h) [µM]	SMILES	IC50 (lung cancer A549 cells; 48 h) [µM]	IC50 ([1]; 48 h) [µM]	IC50 ([2]; 48 h) [µM]	IC50 ([3]; 48 h) [µM]	IC50 ([4]; 48 h) [µM]	effect on A8-induced lipid peroxide accumulation (in words) (MCF-7 cells)	effect on A8-suppressed GPX4 expression (in words) (GPX4)
> 30	26.1 ± 0.87	18.4 ± 1.14	> 30	27.7 ± 1.23	O=c1[nH]cc(F)c(=O)[nH]1 [5FU, 5-fluorouracil, reference compound]	–	–	–	–	–	–	–
–	–	–	–	–	CC1CCC2C(C)C(OC(=O)CCC(=O)NCc3nnc(Nc4ccc(OC(F)(F)F)cc4)o3)OC3OC4(C)CCC1C32OO4 (centres unmarked) [A1]	> 30	5.2 ± 1.38	> 30	> 30	> 30	–	–
–	–	–	–	–	Cc1ccc(Nc2nnc(CNC(=O)CCC(=O)OC3OC4OC5(C)CCC6C(C)CCC(C3C)C46OO5)o2)cc1 (centres unmarked) [A2]	> 30	4.26 ± 0.17	14.8 ± 1.77	> 30	4.89 ± 1.58	–	–
–	–	–	–	–	CCOc1ccccc1Nc1nnc(CNC(=O)CCC(=O)OC2OC3OC4(C)CCC5C(C)CCC(C2C)C35OO4)o1 (centres unmarked) [A3]	> 30	6.82 ± 0.25	> 30	> 30	> 30	–	–
–	–	–	–	–	CC1CCC2C(C)C(OC(=O)CCC(=O)NCc3nnc(Nc4c(F)cccc4F)o3)OC3OC4(C)CCC1C32OO4 (centres unmarked) [A4]	> 30	> 30	> 30	> 30	> 30	–	–
–	–	–	–	–	CC1CCC2C(C)C(OC(=O)CCC(=O)NCc3nnc(Nc4ccc(C(F)(F)F)cc4)o3)OC3OC4(C)CCC1C32OO4 (centres unmarked) [A5]	> 30	> 30	> 30	> 30	> 30	–	–
–	–	–	–	–	CC1CCC2C(C)C(OC(=O)CCC(=O)NCc3nnc(Nc4ccc(Cl)cc4)o3)OC3OC4(C)CCC1C32OO4 (centres unmarked) [A6]	> 30	> 30	> 30	> 30	> 30	–	–
–	–	–	–	–	CC1CCC2C(C)C(OC(=O)CCC(=O)NCc3nnc(Nc4cc(Br)ccc4Br)o3)OC3OC4(C)CCC1C32OO4 (centres unmarked) [A7]	> 30	> 30	> 30	> 30	> 30	–	–
–	–	–	–	–	CC1CCC2C(C)C(OC(=O)CCC(=O)NCc3nnc(Nc4ccccc4F)o3)OC3OC4(C)CCC1C32OO4 (centres unmarked) [A9]	> 30	8.89 ± 0.39	> 30	> 30	> 30	–	–
–	–	–	–	–	CC1CCC2C(C)C(OC(=O)CCC(=O)NCc3nnc(Nc4ccc(C(C)(C)C)cc4)o3)OC3OC4(C)CCC1C32OO4 (centres unmarked) [A10]	> 30	11.1 ± 1.28	> 30	> 30	> 30	–	–
–	–	–	–	–	CC1CCC2C(C)C(OC(=O)CCC(=O)NCc3nnc(Nc4ccc(Br)cc4)o3)OC3OC4(C)CCC1C32OO4 (centres unmarked) [A11]	> 30	> 30	> 30	> 30	> 30	–	–
–	–	–	–	–	Cc1cc(C)cc(Nc2nnc(CNC(=O)CCC(=O)OC3OC4OC5(C)CCC6C(C)CCC(C3C)C46OO5)o2)c1 (centres unmarked) [A13]	> 30	9.72 ± 0.11	> 30	> 30	> 30	–	–
–	–	–	–	–	COc1ccc(Nc2nnc(CNC(=O)CCC(=O)OC3OC4OC5(C)CCC6C(C)CCC(C3C)C46OO5)o2)cc1 (centres unmarked) [A14]	> 30	6.86 ± 0.73	> 30	> 30	19.4 ± 0.91	–	–
–	–	–	–	–	Cc1ccc(Nc2nnc(CNC(=O)CCC(=O)OC3OC4OC5(C)CCC6C(C)CCC(C3C)C46OO5)o2)c(C)c1 (centres unmarked) [A15]	> 30	> 30	> 30	> 30	> 30	–	–
27.2 ± 0.67	> 30	> 30	> 30	> 30	C[C@@H]1CC[C@H]2[C@@H](C)C(=O)O[C@@H]3O[C@@]4(C)CC[C@@H]1[C@]32OO4 [ART, Artemisinin]	–	–	–	–	–	–	–
–	–	–	–	–	CCOC(=O)c1ccc(NC2CCCCC2)c(N)c1 [Fer-1, ferrostatin-1, reference compound]	–	–	–	–	–	reversed lipid peroxide accumulation	restored the expression of GPX4
